We go through one compound from patent publication US20220105113A1, “CYLODIMER OF DEHYDROSALICORTIN AND DERIVATIVES THEREOF ISOLATED FROM PLANT OF THE GENUS SALIX FOR USE IN CANCER THERAPY” (ROTHAMSTED RESEARCH LTD, priority 2019, published 2022).

Holding throughout (assay type): cell-based
For one assay, the system named is BT-474. The assay can be described thus: MTT dye reduction cell viability assay, BT-474 breast cancer cell line. Conditions: Homo sapiens, BT-474, MTT 120 h, read-out: Miyabeacin IC50. Here is the method: (§1) The activity of miyabeacin was tested against a range of cancer cell lines including those in neuroblastoma and breast, oesophageal and ovarian cancers (Table 10).
(§2) The MYCN-amplified neuroblastoma cell line UKF-NB-3 was established from a stage 4 neuroblastoma patient (Kotchetkov et al., 2005). Also tested was the vincristine-resistant UKF-NB-3 sub-line UKF-NB-3^rVCR (Rothwell et al., 2010) (adapted to grow in the presence of vincristine 10 ng/mL). At a concentration of 20 μg/mL of miyabeacin, the cell viability, relative to non-treated cells, after 120 hours was 0% for UKF-NB-3 and 4.22±2.89% for the vincristine resistant UKF-NB-3^rVCR line. The oesophageal cancer cell line COLO-680N was obtained from ATCC (Manassas, Va., USA) and the ovarian cancer cell line COLO-704 from DSMZ (Braunschweig, Germany). All cell lines were propagated in Iscove's modified Dulbecco's medium (IMDM) supplemented with 10% FCS, 100 IU/ml penicillin and […] streptomycin at 37° C. […] Cell viability was determined by the 3-(4,5-dimethylthiazol-2-yl)-2,5-diphenyltetrazolium bromide (MTT) dye reduction assay after 120 h incubation as described previously (Michaelis et al., 2015). […] Plates were then read at 600 nm. The relative viability was determined as the relative reduction of the optical density relative to an untreated cell control (=100%).

Another assay has as its system COLO-680N. The experiment in a line: MTT dye reduction cell viability assay, COLO-680N oesophageal cancer cell line. Conditions: Homo sapiens. Here is the method:
as §1
(§3) The MYCN-amplified neuroblastoma cell line UKF-NB-3 was established from a stage 4 neuroblastoma patient (Kotchetkov et al., 2005). Also tested was the vincristine-resistant UKF-NB-3 sub-line UKF-NB-3^rVCR (Rothwell et al., 2010) (adapted to grow in the presence of vincristine 10 ng/mL). At a concentration of 20 μg/mL of miyabeacin, the cell viability, relative to non-treated cells, after 120 hours was 0% for UKF-NB-3 and 4.22±2.89% for the vincristine resistant UKF-NB-3^rVCR line. The oesophageal cancer cell line COLO-680N was obtained from ATCC (Manassas, Va., USA) and the ovarian cancer cell line COLO-704 from DSMZ (Braunschweig, Germany). All cell lines were propagated in Iscove's modified Dulbecco's medium (IMDM) supplemented with 10% FCS, 100 IU/ml penicillin and […] streptomycin at 37° C. Cells were routinely tested for mycoplasma contamination and authenticated by short tandem repeat profiling. Cell viability was determined by the 3-(4,5-dimethylthiazol-2-yl)-2,5-diphenyltetrazolium bromide (MTT) dye reduction assay after 120 h incubation as described previously (Michaelis et al., 2015). Briefly, 5000 cells (suspended in 100 μL IMDM supplemented with 10% FCS, 100 IU/ml penicillin and […] streptomycin) were incubated in 96-well plates at 37° C. and 5% CO2 in the absence or presence of varying compound concentrations for 120 h. Then, 25 μL of MTT solution ([…] dissolved in PBS) were added for 4 h. This was followed by the addition of […] of 20% sodium dodecyl sulphate (50:50 purified water/DMF) solution adjusted to pH 4.7 for an additional 4 h in order to lyse cells and dissolve formazan precipitates. Plates were then read at 600 nm. The relative viability was determined as the relative reduction of the optical density relative to an untreated cell control (=100%).

In a further assay the test system is COLO-704. The assay can be described thus: MTT dye reduction cell viability assay, COLO-704 ovarian cancer cell line. Here is the method: as §1, §3
Another assay relates to EFO-21. The assay can be described thus: MTT dye reduction cell viability assay, EFO-21 ovarian cancer cell line. The following applies: Homo sapiens, EFO-21, MTT 120 h, read-out: Miyabeacin IC50. How it is done: as §1, §2
The test system of a further assay is MCF-7. The experiment in a line: MTT dye reduction cell viability assay, MCF-7 breast cancer cell line. The following applies: Homo sapiens, MCF7, MCF-7, MTT 120 h, read-out: Miyabeacin IC50. How it is done:
as §1, §2

The next assay has as its system UKF-NB-3. The experiment in a line: MTT dye reduction cell viability assay, UKF-NB-3 neuroblastoma cell line. How it is done:
as §1, §3

In the next assay the test system is UKF-NB-3^rVCR. The assay can be described thus: MTT dye reduction cell viability assay, vincristine-resistant UKF-NB-3 sub-line. The following applies: 20 μg/mL, after 120 hours, vincristine resistant UKF-NB-3^rVCR; read-out: cell viability, relative to non-treated cells. How it is done:
(§4) The MYCN-amplified neuroblastoma cell line UKF-NB-3 was established from a stage 4 neuroblastoma patient (Kotchetkov et al., 2005). Also tested was the vincristine-resistant UKF-NB-3 sub-line UKF-NB-3^rVCR (Rothwell et al., 2010) (adapted to grow in the presence of vincristine 10 ng/mL). At a concentration of 20 μg/mL of miyabeacin, the cell viability, relative to non-treated cells, after 120 hours was 0% for UKF-NB-3 and 4.22±2.89% for the vincristine resistant UKF-NB-3^rVCR line. The oesophageal cancer cell line COLO-680N was obtained from ATCC (Manassas, Va., USA) and the ovarian cancer cell line COLO-704 from DSMZ (Braunschweig, Germany). All cell lines were propagated in Iscove's modified Dulbecco's medium (IMDM) supplemented with 10% FCS, 100 IU/ml penicillin and […] streptomycin at 37° C. Cells were routinely tested for mycoplasma contamination and authenticated by short tandem repeat profiling. Cell viability was determined by the 3-(4,5-dimethylthiazol-2-yl)-2,5-diphenyltetrazolium bromide (MTT) dye reduction assay after 120 h incubation as described previously (Michaelis et al., 2015). […] Plates were then read at 600 nm. The relative viability was determined as the relative reduction of the optical density relative to an untreated cell control (=100%).

Assay [1] has as its system UKF-NB-3, COLO-680N and COLO-704. The assay can be described thus: Replicated IC50 determination (MTT) on three selected lines. The following applies: range of means over UKF-NB-3, COLO-680N and COLO-704. Here is the method: as §4

In brackets after ≈: the same amount, converted by molar mass. Read-outs that look alike come from different tables or passages of the source.

With `O=C(OCc1ccccc1O[C@H]1OC(CO)[C@H](O)C(O)C1O)[C@@]1(O)C(=O)C2C=CC1C1C2C=CC(=O)[C@]1(O)C(=O)OCc1ccccc1O[C@H]1OC(CO)[C@H](O)C(O)C1O` (stereo partly drawn) [miyabeacin], the IC50 in the assay with BT-474 worked out at 27 µg/mL (≈ 32 µM); in the assay with COLO-680N (expt 1, read-out: miyabeacin IC50 concentration expt 1), 5.08 µg/mL; in the assay with COLO-680N (expt 2, read-out: miyabeacin IC50 concentration expt 2), 15.1 µg/mL; in the assay on COLO-680N (expt 3, read-out: miyabeacin IC50 concentration expt 3), 51.5 µg/mL; in the assay on COLO-680N (mean of 3 expts, read-out: IC50 mean) it was 28.3 µM; with COLO-680N (mean of 3 expts, read-out: miyabeacin IC50 concentration mean) it was 23.9 µg/mL. Further, the IC50 in the assay with COLO-680N (oesophageal, MTT 120 h, read-out: Miyabeacin IC50) stood at 5.08 µg/mL; in the assay on COLO-704 (COLO-704, expt 1, read-out: miyabeacin IC50 concentration expt 1) it was 20.2 µg/mL; with COLO-704 (COLO-704, expt 2, read-out: miyabeacin IC50 concentration expt 2), 32.4 µg/mL; with COLO-704 (COLO-704, expt 3, read-out: miyabeacin IC50 concentration expt 3) it was 50.8 µg/mL; in the assay with COLO-704 (COLO-704, mean of 3 expts, read-out: IC50 mean) it was 40.2 µM; in the assay on COLO-704 (COLO-704, mean of 3 expts, read-out: miyabeacin IC50 concentration mean), 34.5 µg/mL. Moreover, the IC50 in the assay with COLO-704 (ovarian, COLO-704, MTT 120 h, read-out: Miyabeacin IC50) was determined as 20.2 µg/mL; with EFO-21 it was 12.7 µg/mL (≈ 15 µM); in the assay on MCF-7 it was 2.19 µg/mL (≈ 2.59 µM); in the assay on UKF-NB-3 (UKF-NB-3, expt 1, read-out: miyabeacin IC50 concentration expt 1), 7.12 µg/mL; with UKF-NB-3 (UKF-NB-3, expt 2, read-out: miyabeacin IC50 concentration expt 2) it was 21 µg/mL; in the assay with UKF-NB-3 (UKF-NB-3, expt 3, read-out: miyabeacin IC50 concentration expt 3), 15.3 µg/mL. Moreover, the IC50 in the assay with UKF-NB-3 (UKF-NB-3, mean of 3 expts, read-out: IC50 mean) is 17.2 µM; in the assay on UKF-NB-3 (UKF-NB-3, mean of 3 expts, read-out: miyabeacin IC50 concentration mean), 14.5 µg/mL; in the assay with UKF-NB-3 (neuroblastoma, UKF-NB-3, MTT 120 h, read-out: Miyabeacin IC50), 7.12 µg/mL; in assay [1] it was 17.2 to 40.2 µM. Besides, the viability at 20 µg/mL in the assay with UKF-NB-3 (20 μg/mL, after 120 hours, UKF-NB-3, read-out: cell viability, relative to non-treated cells) turned out to be 0%; with UKF-NB-3^rVCR, 4.22 ± 2.89%.
